Reference: US12018011B2, “Macrocyclic compounds and compositions, and methods of preparing and using the same” (Kura Oncology, Inc., priority 2021, dated 2024)

Molecular target: T1, Recombinant human farnesyl transferase (FTase) (Homo sapiens, UniProt P49356)
T1 construct: purchased Crelux (Martinsried, Germany)
Assay: FTase fluorescence assay (farnesylation of dansyl-GCVLS peptide)
Format: biochemical
Details: recombinant human FTase 2.5 nM, Dansyl-GCVLS 85 nM, FPP 30 nM, 30° C., 50 minutes
Text: T24/83 cell line was purchased from the European Collection of Authenticated Cell Cultures (Salisbury, UK). Recombinant human farnesyl transferase (FTase) and geranylgeranyl transferase type-1 (GGTase) were obtained from Crelux (Martinsried, Germany). Dansyl labelled GCVLS peptide was purchased from Bachem (Torrance, CA), and Dansyl labelled GCVLL peptide was purchased from Bio Synthesis (Lewisville, TX). Farnesyl Pyrophosphate (FPP) and Geranylgeranyl pyrophosphate (GGPP) were purchased from Cayman (Ann Arbor, MI).
Specific biochemical activity of the compounds disclosed herein as FTase inhibitors was determined by measuring the ability of the compounds to block the farnesylation by recombinant FTase of fluorescent (i.e., dansyl-labeled) test substrates derived from the CAAX box of farnesylated proteins, such as the peptide GCVLS.
The IC50 value of the compounds disclosed herein as inhibitors of Ftase and/or GGTase, was determined by measuring the concentration (provided in nM) necessary to achieve inhibition of enzyme activity by 50% (IC50). […] Compounds having a low IC50 value against FTase, for example an IC50 (FTase)<100 nM, such as an IC50 (FTase)<10 nM, are preferred. Compounds having a low IC50 value against FTase and a high IC50 value against GGTase, for example an IC50 (FTase)<100 nM, such as an IC50 (FTase)<10 nM, and an IC50 (GGTase)>100 nM, are potent and selective inhibitors of FTase, and are particularly preferred.
The inhibition activities of the compounds disclosed herein against Ftase and GGTase were measured in the respective fluorescence assays as follows:
For the FTase assay, recombinant human FTase (2.5 nM), Dansyl labelled GCVLS peptide (85 nM), FPP (30 nM) and inhibitor were mixed in assay buffer (50 mM Tris, pH 7.5, 10 mM magnesium chloride, 10 μM zinc chloride, 0.08% CHAPS, 5 mM dithiothreitol) and incubated in a total volume of 20 μL at 30° C. for 50 minutes.
For both the FTase assay and GGTase assay, fluorescence intensity was detected (excitation at 340 nm and emission at 486 nm) using EnVision (PerkinElmer; Waltham, MA), IC50 determinations were performed using a sigmoidal dose-response model with Xlfit software (IDBS, Inc.; Boston, MA), and tipifarnib was used as a positive control. All the assay plates for each assay passed the QC criteria (S/B, Z factor).

IC50 | Structure (SMILES)
0.01 to 0.1 µM | Cn1cncc1[C@]1(N)c2ccc(C#N)c(c2)COc2cccc(c2)-c2cc(C#N)nc3ccc1cc23 (racemic) [(R)-58, (R)-3-amino-3-(1-methyl-1H-imidazol-5-yl)-6-oxa-2(4,6)-quinolina-1,4(1,3)-dibenzenacyclohexaphane-2^2,4^4-dicarbonitrile]
0.01 to 0.1 µM | [2H]C([2H])([2H])n1c(=O)cc2c3cc(ccc31)[C@H](n1cnc(C)n1)c1ccc(Cl)c(c1)COc1cccc-2c1 [(S)-080, (S)-4^4-chloro-2^1-(methyl-d3)-3-(3-methyl-1H-1,2,4-triazol-1-yl)-2^1,2^2-dihydro-6-oxa-2(4,6)-quinolina-1,4(1,3)-dibenzenacyclohexaphan-2^2-one]
0.01 to 0.1 µM | COc1cc2c3cc(ccc3n1)C(O)(c1cncn1C)c1ccc(C#N)c(c1)OCc1cccc-2c1 (centres unmarked) [Compound 16, 3-hydroxy-2^2-methoxy-3-(1-methyl-1H-imidazol-5-yl)-5-oxa-2(4,6)-quinolina-1,4(1,3)-dibenzenacyclohexaphane-4^4-carbonitrile]
0.01 to 0.1 µM | Cn1cnnc1C1(O)c2ccc(Cl)c(c2)OCCc2cccc(c2)-c2cc(=O)[nH]c3ccc1cc23 (centres unmarked) [Compound 31, 4^4-chloro-3-hydroxy-3-(4-methyl-4H-1,2,4-triazol-3-yl)-2^1,2^2-dihydro-5-oxa-2(4,6)-quinolina-1,4(1,3)-dibenzenacycloheptaphan-2^2-one]
> 0.1 µM | Cn1cncc1C1(N)c2ccc(Br)c(c2)COc2cccc(c2)-c2cc(OC3COC3)nc3ccc1cc23 (centres unmarked) [Compound 75, 4^4-bromo-3-(1-methyl-1H-imidazol-5-yl)-2^2-(oxetan-3-yloxy)-6-oxa-2(4,6)-quinolina-1,4(1,3)-dibenzenacyclohexaphan-3-amine]
≤ 0.01 µM | Cn1cncc1[C@@]1(N)c2ccc(C#N)c(c2)COc2cccc(c2)-c2nccc3ccc1cc23 [(S)-86, (S)-3-amino-3-(1-methyl-1H-imidazol-5-yl)-6-oxa-2(1,7)-isoquinolina-1,4(1,3)-dibenzenacyclohexaphane-4^4-carbonitrile]
0.01 to 0.1 µM | [2H]C([2H])([2H])n1c(=O)cc2c3cc(ccc31)[C@H](n1cnc(C)c1)c1ccc(Cl)c(c1)COc1cccc-2c1 [(S)-77, (S)-4^4-chloro-2^1-(methyl-d3)-3-(4-methyl-1H-imidazol-1-yl)-2^1,2^2-dihydro-6-oxa-2(4,6)-quinolina-1,4(1,3)-dibenzenacyclohexaphan-2^2-one]
≤ 0.01 µM | [2H]C([2H])([2H])n1cncc1[C@@]1(O)c2ccc(C#N)c(c2)COc2cccc(c2)-c2cc(C#N)nc3ccc1cc23 [(S)-078, (S)-3-hydroxy-3-(1-(methyl-d3)-1H-imidazol-5-yl)-6-oxa-2(4,6)-quinolina-1,4(1,3)-dibenzenacyclohexaphane-2^2 4^4-dicarbonitrile]

More lines, now with the values behind:

Structure (SMILES) | IC50
Cn1cncc1[C@]1(O)c2ccc(C#N)c(c2)OCCc2cccc(c2)-c2cc(=O)n(C)c3ccc1cc23 (racemic) [(R)-36, (R)-3-hydroxy-2^1-methyl-3-(1-methyl-1H-imidazol-5-yl)-2^2-oxo-2^1,2^2-dihydro-5-oxa-2(4,6)-quinolina-1,4(1,3)-dibenzenacycloheptaphane-4^4-carbonitrile] | > 0.1 µM
Cn1cncc1[C@@]1(N)c2ccc(C#N)c(c2)COc2cccc(c2)-c2cc(N3CCOCC3)nc3ccc1cc23 [(S)-66, (S)-3-amino-3-(1-methyl-1H-imidazol-5-yl)-2^2-morpholino-6-oxa-2(4,6)-quinolina-1,4(1,3)-dibenzenacyclohexaphane-4^4-carbonitrile] | ≤ 0.01 µM
[2H]C([2H])([2H])n1c(=O)cc2c3cc(ccc31)[C@](N)(c1cncn1C)c1ccc(C#N)c(c1)COc1cccc-2c1 (racemic) [(R)-56, (R)-3-amino-2^1-(methyl-d3)-3-(1-methyl-1H-imidazol-5-yl)-2^2-oxo-2^1,2^2-dihydro-6-oxa-2(4,6)-quinolina-1,4(1,3)-dibenzenacyclohexaphane-4^4-carbonitrile] | > 0.1 µM
COc1cc2c3cc(cnc3c1)C(O)(c1cncn1C)c1ccc(Br)c(c1)COc1cccc-2c1 (centres unmarked) [Compound 87, 4^4-bromo-2^7-methoxy-3-(1-methyl-1H-imidazol-5-yl)-6-oxa-2(5,3)-quinolina-1,4(1,3)-dibenzenacyclohexaphan-3-ol] | > 0.1 µM
Cn1cncc1[C@]1(N)c2ccc(C#N)c(c2)OCc2cccc(c2)-c2cc(=O)n(C)c3ccc1cc23 (racemic) [(R)-19, (R)-3-amino-2^1-methyl-3-(1-methyl-1H-imidazol-5-yl)-2^2-oxo-2^1,2^2-dihydro-5-oxa-2(4,6)-quinolina-1,4(1,3)-dibenzenacyclohexaphane-4^4-carbonitrile] | > 0.1 µM
[2H]C([2H])([2H])n1cncc1[C@]1(O)c2ccc(C#N)c(c2)COc2cccc(c2)-c2cc(C#N)nc3ccc1cc23 [(R)-078, (R)-3-hydroxy-3-(1-(methyl-d3)-1H-imidazol-5-yl)-6-oxa-2(4,6)-quinolina-1,4(1,3)-dibenzenacyclohexaphane-2^2 4^4-dicarbonitrile] | 0.01 to 0.1 µM
Cn1cncc1[C@]1(N)c2ccc(Cl)c(c2)CCc2cccc(c2)-c2cc(=O)n(C)c3ccc1cc23 (racemic) [(R)-4, (R)-3-amino-4^4-chloro-2^1-methyl-3-(1-methyl-1H-imidazol-5-yl)-2^1,2^2-dihydro-2(4,6)-quinolina-1,4(1,3)-dibenzenacyclohexaphan-2^2-one] | > 0.1 µM
[2H]C([2H])([2H])n1c(=O)cc2c3cc(ccc31)[C@@H](n1cnc(C)c1)c1ccc(Cl)c(c1)COc1cccc-2c1 [(R)-77, (R)-4^4-chloro-2^1-(methyl-d3)-3-(4-methyl-1H-imidazol-1-yl)-2^1,2^2-dihydro-6-oxa-2(4,6)-quinolina-1,4(1,3)-dibenzenacyclohexaphan-2^2-one] | 0.01 to 0.1 µM
COc1cc2c3cc(ccc3n1)C(O)(c1cncn1C)c1ccc(Cl)c(c1)OCc1cccc-2c1 (centres unmarked) [Compound 12, 4^4-chloro-2^2-methoxy-3-(1-methyl-1H-imidazol-5-yl)-5-oxa-2(4,6)-quinolina-1,4(1,3)-dibenzenacyclohexaphan-3-ol] | > 0.1 µM
Cn1cncc1[C@]1(N)c2ccc(Cl)c(c2)OCc2cccc(c2)-c2cc(=O)n(C)c3ccc1cc23 (racemic) [(R)-15, (R)-3-amino-4^4-chloro-2^1-methyl-3-(1-methyl-1H-imidazol-5-yl)-2^1,2^2-dihydro-5-oxa-2(4,6)-quinolina-1,4(1,3)-dibenzenacyclohexaphan-2^2-one] | > 0.1 µM
Cn1cncc1[C@]1(N)c2ccc(C#N)c(c2)COc2cccc(c2)-c2cc(N3CCOCC3)nc3ccc1cc23 (racemic) [(R)-66, (R)-3-amino-3-(1-methyl-1H-imidazol-5-yl)-2^2-morpholino-6-oxa-2(4,6)-quinolina-1,4(1,3)-dibenzenacyclohexaphane-4^4-carbonitrile] | ≤ 0.01 µM
[2H]C([2H])([2H])n1cncc1[C@@]1(N)c2ccc(C#N)c(c2)COc2cccc(c2)-c2cc(C#N)nc3ccc1cc23 [(S)-70, (S)-3-amino-3-(1-(methyl-d3)-1H-imidazol-5-yl)-6-oxa-2(4,6)-quinolina-1,4(1,3)-dibenzenacyclohexaphane-2^2 4^4-dicarbonitrile] | ≤ 0.01 µM
